Like-named read-outs stand apart in the source and are kept apart here.
Legend:
[1] = comparison value; cited from earlier work
[2] = Acute amitriptylin and clomipramine poisonings in the ICU, clinical features and pharmacokinetics
[3] = Amikacin peak serum concentration (Cmax) after loading dose in patients on ECMO; type: in vivo, adult patients; details: IV loading dose 25 mg kg total body weight; Cmax 30 min after end of infusion; VA- or VV-ECMO; n = 106
[4] = test system: carbapenemase-producing Enterobacteriaceae; test: Antibiotic susceptibility of Enterobacteriaceae with decreased susceptibility to carbapenems; type: cell-based; details: CA-SFM 2015
Pseudomonas aeruginosa = test: Disk diffusion susceptibility of P. aeruginosa isolated from burned patients (P-48); type: cell-based; details: 485 strains from burned patients 2012-2015, disk diffusion, FSM breakpoints
[5] = Amikacin peak serum concentration (Cmax) in ICU patients with septic shock/severe sepsis (P-52); type: in vivo, human
[6] = critically ill patients, 25 mg kg dose; ref 1 (de Montmollin et al. 2014); cited from earlier work
Description: Introduction: Amikacin infusion requires to target a peak serum concentration (Cmax) 8–10 times the minimal inhibitory concentration, corresponding to a Cmax at 60–80 mg L^−1 for the least susceptible bacteria. […] Membrane sequestration, alteration of the volume of distribution and lack of data in this population make drugs pharmacokinetics (PK) on ECMO challenging. Our study aimed to assess the prevalence of insufficient Amikacin Cmax in critically ill patients on ECMO and to identify re ...

[7] = set-up: method as in Taccone in 2010; details: dosages of 25 mg kg; ref Taccone in 2010; cited from earlier work
Pseudomonas = details: January 2010 - June 2014
Acinetobacter baumannii = details: January 2010 - June 2014
[8] = human, in vivo
Description: Patients and methods: This study was conducted in burn center in Tunis. Patients with documented and or suspected infections were included. Were excluded pregnant women and patients with renal failure. […] For the 2nd, 3rd, 4th and 5th day, blood samples were taken before the infusion (T0), at the end (T1) and 30 min after the end of it (T2).

Escherichia-coli = test: Resistance in nosocomial urinary tract infection: Escherichia-coli (P-219); details: January 2010 - June 2014
glucocorticoid receptors = glucocorticoid receptors (Homo sapiens, UniProt P04150)
[9] = not given; remark: listed apart in the source
[10] = test system: TREM-1 signalling pathway; details: in vivo; cited from earlier work
Source text: Introduction: MOTREM is the clinically formulated synthetic peptide (LR12) that is currently being developed for the treatment of sepsis and for the prevention of sequelae after acute myocardial infarction. […] Its pharmacological action occurs via the Triggering Receptor Expressed on Myeloid Cells-1 (TREM-1) signalling pathway.

clinical = details: male, human, in vivo, iv
Description: (§1) Patients and methods: Twenty-seven healthy male volunteers have been included in this clinical trial. The product was administered by continuous intravenous infusion (CIV). A single ascending dose design with 8 dose levels was used. […] All volunteers were carefully monitored. Before escalation to the next dose level, safety and PK data of the previous dose level were reviewed by a safety review committee.

[11] = MOTREM phase I first-in-human single ascending dose trial, safety and pharmacokinetics; details: in vivo
Description: as §1

[12] = Piperacillin population pharmacokinetics in critically ill children; type: in vivo; details: median (range), one compartment model, n = 50 children
Source text: Pharmacokinetics were described using the non-linear mixed effect modelling software MONOLIX.

[13] = Residual serum concentrations of piperacillin and amoxicillin and neurological disorders (HPLC MS); type: in vivo, critically ill patients
Description: Patients and methods: This study was carried out retrospectively during the period 01.01.2015 to 08.02.2017, in patients hospitalized in the medical ICU-CHU Rouen with PTM.

[14] = test system: Stenotrophomonas maltophilia VAP; test: Risk factors for Stenotrophomonas maltophilia VAP, matched analysis; type: in vivo, patients; details: exposure during the week before VAP; 93 cases, 380 controls
Description: Patients and methods: We conducted a retrospective analysis of prospectively collected data in a multicenter database in France. VAP was determined as microbiologically documented pneumonia occurring after at least two days of mechanical ventilation. All patients admitted from 2000 to 2015 presenting at least one episode of VAP were included. SM-VAP were compared with VAP due to other micro-organisms (VAP-other). To assess risk factors and day-30 (D30) mortality, SM-VAP were matched (1 − n) with VAP-other based on center, time from ICU admission to VAP occurrence, and SAPS II score.

[15] = Major arrhythmia recurrence after resuscitated ischemic VF/VT, PROCAT registry (P-86); type: in vivo, human; details: multivariate analysis, 256 patients, 104 treated; p = 0.870
Source text: Patients and methods: The PROCAT registry captures all data from patients admitted in a tertiary hospital center after a resuscitated cardiac arrest (CA). We selected patients with an initial VF VT caused by an acute coronary syndrome (ACS) and who were successfully treated with early percutaneous coronary intervention (PCI) on admission. The primary endpoint was the recurrence of major arrhythmia between ICU admission and ICU discharge. All arrhythmias resulting in CA recurrence and or severe arterial hypotension requiring infusion of vasopressors were classified as major arrhythmias. Multivariate logistic regression identified factors associated with the occurrence of major arrhythmias.

[16] = test system: acutely poisoned ventilated patients; details: human, in vivo
[17] = Caffeine in bronchiolitis related apnea, PICU retrospective study (P-118); details: 49 treated of 54 infants; loading 20 mg kg, 5 mg kg day maintenance
[18] = 2 g day intermittent infusion, trough concentrations, theoretical target MIC 2 mg/L, 21 patients, 63 samples
[19] = Eight of 49 patients
eclampsia = test: Eclampsia survey, recurrence under magnesium sulfate prevention; type: in vivo, patients; details: 83 women
Source text: Patients and methods: We conducted a retrospective survey in a third level Tunisian university teaching hospital from January 2004 to December 2016. We included all patients with the diagnosis of eclampsia.

GABA-A receptors = test: PET imaging with 11C-flumazenil, interaction of tramadol with GABA-A receptors; type: binding; details: 11C-flumazenil fixation in the rat brain
[20] = CVVHF filter lifespan, LMWH versus regional citrate anticoagulation (P-97); set-up: species or system human; details: in vivo
Source text: Patients and methods: A monocentric retrospective study was led from January to October 2016. All the CVVHF sessions during this period were included. Prismaflex© monitors (Hospal) were used. Practioners were free to choose between citrate or LMWH defining 2 groups. We aimed a post filter ionized calcemia between 0.25 to 0.5 mmol/L in citrate group + and a post filter anti Xa activity between 0.2 to 0.5 UI/mL in LMWH.

anti-Xa activity = test: Population pharmacokinetics of enoxaparin (anti-Xa activity) in pediatric liver transplantation (P-170); type: in vivo, human (children)
Description: Patients and methods: Clinical, biological and kinetic data were retrospectively collected in a single Pediatric Intensive Care Unit center from January 2013 to July 2015. We described an enoxaparin PK model in 22 children the first week following the LT. Anti-Xa activity time-courses were analyzed using a non linear mixed effects approach with Monolix version 2016R.

[21] = Heparin-induced thrombocytopenia in ICU (anti-PF4 antibody test); type: in vivo; details: patients hospitalized in ICU
Description: Patients and methods: This was a retrospective, monocentric, descriptive and evaluative study conducted in our intensive care unit (ICU) over a period of 4 years 6 months. An anti-PF4 antibody test was performed in patients who developed thrombocytopenia or a 30% drop in their initial platelet kinetics and the clinical picture.

Sequence of glucocorticoid receptors (P04150 whole entry): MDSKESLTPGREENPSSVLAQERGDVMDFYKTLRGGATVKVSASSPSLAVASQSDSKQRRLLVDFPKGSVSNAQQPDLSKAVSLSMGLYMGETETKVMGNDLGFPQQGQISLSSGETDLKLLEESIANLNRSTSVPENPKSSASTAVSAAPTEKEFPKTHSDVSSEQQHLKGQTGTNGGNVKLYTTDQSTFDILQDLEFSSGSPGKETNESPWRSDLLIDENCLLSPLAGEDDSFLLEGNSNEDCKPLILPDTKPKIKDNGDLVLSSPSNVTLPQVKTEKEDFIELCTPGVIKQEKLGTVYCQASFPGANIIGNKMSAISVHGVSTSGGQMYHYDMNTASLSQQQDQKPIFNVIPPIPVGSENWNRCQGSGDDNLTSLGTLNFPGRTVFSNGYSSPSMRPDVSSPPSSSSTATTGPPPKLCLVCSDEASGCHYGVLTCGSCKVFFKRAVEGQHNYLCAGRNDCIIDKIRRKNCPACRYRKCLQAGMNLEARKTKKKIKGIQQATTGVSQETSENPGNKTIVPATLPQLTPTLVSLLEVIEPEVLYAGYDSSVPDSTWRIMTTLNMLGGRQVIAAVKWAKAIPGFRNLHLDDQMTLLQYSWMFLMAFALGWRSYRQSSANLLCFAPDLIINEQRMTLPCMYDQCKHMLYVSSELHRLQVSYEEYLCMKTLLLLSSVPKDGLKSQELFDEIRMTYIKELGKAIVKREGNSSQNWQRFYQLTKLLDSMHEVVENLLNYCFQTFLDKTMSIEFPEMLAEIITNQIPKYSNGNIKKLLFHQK

CN(C)CCC=C1c2ccccc2CCc2ccccc21 [AMI, Amitriptylin]
elimination half-life in pharmacological conditions [1]: 24 h | plasma concentration ([2]; median, AMI [0.4 + 1.4], dose 1.5 g, CLO [0.5 + 1.4], dose 3.0 g): 700 ng/mL | elimination half-life in overdose ([2]; non-compartmental analysis): 43 h | coma depth, AMI vs CLO ([2]; p < 0.0001): significantly deeper coma | seizures, AMI vs CLO ([2]; p = 0.02): fewer seizures than CLO

NCC[C@H](O)C(=O)N[C@@H]1C[C@H](N)[C@@H](O[C@H]2O[C@H](CN)[C@@H](O)[C@H](O)[C@H]2O)[C@H](O)[C@H]1O[C@H]1O[C@H](CO)[C@@H](O)[C@H](N)[C@H]1O [Amikacin]
Cmax < 60 mg L^−1 (proportion of patients) [3]: 39% | resistant rate [4]: 57% | strains resistant (Pseudomonas aeruginosa): 62% | median Cmax ([5]; median dosage 22.5 mg kg, initial injection, 191 patients): 72.1 mg·L | patients with Cmax greater than 80 mg l ([5]; of 191 patients): 53 patients | patients with Cmax less than 64 mg l ([5]; of 191 patients): 77 patients | patients not attaining target Cmax 60–80 mg L^−1 [6]: 33% | peaks above 64 mg l [7]: 70% | resistant (Pseudomonas): 44% | resistant (Acinetobacter baumannii): 85% | cases reaching a peak between 60 and 80 μg/ml (mean dose 26 mg kg day, 1 h infusion, 18 burned patients): 55% | total volume of distribution (range (0.28–1.32)): 0.55 L·kg | half-life time (t1 2) (range [1.42–8 h]): 4.70 h | amikacin clearance [8]: 6.4 L·h | correlation between Cpeak at day 1 and Cpeak at day 5 (r) [8]: 0.45 | resistance (Escherichia-coli): without resistance

C[C@H]1C[C@H]2[C@@H]3CCC4=CC(=O)C=C[C@]4(C)[C@@]3(F)[C@@H](O)C[C@]2(C)[C@@]1(O)C(=O)CO [Betamethasone]
corticoresistance (mean blanching score < 2) (glucocorticoid receptors; non-septic critically ill): 56% | corticoresistance (mean blanching score < 2) (glucocorticoid receptors; septic shock, 10 µl cream on 3 cm^2, read at 24 h): 78%

CSCC[C@H](NC(=O)[C@H](CS)NC(=O)CNC(=O)[C@H](Cc1ccc(O)cc1)NC(=O)[C@H](CCC(=O)O)NC(=O)CNC(=O)[C@H](C)NC(=O)[C@H](CC(=O)O)NC(=O)[C@H](CCC(=O)O)NC(=O)[C@H](CCC(=O)O)NC(=O)[C@H](CCC(N)=O)NC(=O)[C@@H](N)CC(C)C)C(N)=O [MOTREM]
product-related adverse events ([9]; 27 healthy male volunteers): No product-related adverse events were reported | effective half-life ([9]; continuous IV infusion, healthy male volunteers): about 3 min | safety and tolerability ([9]; up to 5mg/kg 15-min loading dose and 6 mg kg h for 7.75 hours): safe and well tolerated up to the highest dose tested | GLP toxicology [10]: safe and well tolerated in GLP toxicology studies | clearance (clinical): 110 mL/min/kg | PK linearity [11]: linear

CCN1CCN(C(=O)N[C@@H](C(=O)N[C@@H]2C(=O)N3[C@@H]2SC(C)(C)[C@@H]3C(=O)O)c2ccccc2)C(=O)C1=O [Piperacillin]
clearance ([12]; MONOLIX, intermittent infusions): 3 (0.71–10) L h^−1 | volume of distribution [12]: 3.8 (0.72–25.8) L | residual concentration associated with occurrence of neurological disorders ([13]; 80% specificity and sensitivity): greater than 40 mg L^−1 | residual serum concentration, patients with neurological disorders or wakefulness delays ([13]; HPLC MS): 98.2 ± 16.8 mg L^−1 | residual serum concentration, patients without neurological disorders ([13]; HPLC MS): 21.6 ± 4.0 mg L^−1

C[C@]1(Cn2ccnn2)[C@H](C(=O)O)N2C(=O)C[C@H]2S1(=O)=O [Tazobactam]
OR for SM-VAP, univariate analysis [14]: 1.75 [1.04; 2.94]

CCCCc1oc2ccccc2c1C(=O)c1cc(I)c(OCCN(CC)CC)c(I)c1 [amiodarone]
OR for recurrences of major arrhythmias with prophylactic AA treatment [15]: 0.9 [0.3–3.1]

CN1[C@@H]2CC[C@H]1C[C@@H](OC(=O)C(CO)c1ccccc1)C2 (stereo partly drawn) [atropine]
OR, independent risk factor for delirium [16]: 2.333

Cn1c(=O)c2c(ncn2C)n(C)c1=O [caffeine]
potential caffeine adverse effects between groups or pre and post-caffeine administration [17]: no difference

CO/N=C(\C(=O)N[C@@H]1C(=O)N2C(C(=O)O)=C(CSc3nc(=O)c(=O)[nH]n3C)CS[C@H]12)c1csc(N)n1 [ceftriaxone]
rate of PK/PD target non-attainment [18]: 62%

O=C(O)c1cn(C2CC2)c2cc(N3CCNCC3)c(F)cc2c1=O [ciprofloxacin]
OR for SM-VAP, univariate analysis [14]: 1.77 [0.92; 3.39]

C[C@H]1O[C@@H](O[C@H]2[C@@H](O)C[C@H](O[C@H]3[C@@H](O)C[C@H](O[C@H]4CC[C@@]5(C)[C@H](CC[C@@H]6[C@@H]5C[C@@H](O)[C@]5(C)[C@@H](C7=CC(=O)OC7)CC[C@]65O)C4)O[C@@H]3C)O[C@@H]2C)C[C@H](O)[C@@H]1O [digoxin]
patients who died in the ICU [19]: 16%

O=S(=O)([O-])[O-].[Mg+2] [magnesium sulfate]
recurrence of eclampsia despite prevention (eclampsia): 6%

COc1cccc(C2(O)CCCCC2CN(C)C)c1 (stereo not drawn) [tramadol]
interaction with GABA-A receptors (GABA-A receptors): molecular interaction between tramadol and γ-aminobutyric acid (GABA)-A receptors not related to a competitive mechanism

enoxaparin
serious side effect, especially hemorrhage [20]: No serious side effect | typical clearance (CLTYP) (anti-Xa activity; 22 children, first week after LT, one-compartment, scaled to 70 kg, Monolix): 1.26 L/h | typical volume of distribution (VTYP) (anti-Xa activity; 22 children, scaled to 70 kg): 16.9 L | children who never attained the target range of anti-Xa activity 0.2 to 0.4 IU mL (anti-Xa activity; standard 50 IU kg 12 h, 7 children): 32%

heparin
incidence of HIT [21]: 1.71%
